What was measured:
[1] = target: T1, human indoleamine 2,3-dioxygenase 1 (hIDO1) (Homo sapiens, UniProt P14902); assay: In-vitro human indoleamine 2,3-dioxygenase 1 (IDO1) enzyme assay; format: biochemical; details: for IC50: hIDO1 enzyme; for inhibition at 1 µM: hIDO1 enzyme at 1.0 μM concentration; for inhibition at 10 µM: hIDO1 enzyme at 10.0 μM concentration
T1 construct: His tag (N); purchased BPS Bioscience, San Diego, Calif., USA; host or cells: E. coli
Method in brief: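 His-tagged hIDO1 (E. coli, 50 ng) incubated with 80 μM tryptophan, 10 mM ascorbate, 10 μM methylene blue, catalase and 0.01% Tween-20 in 50 mM sodium phosphate pH 6.5, 60 min, 37 °C. Piperidine converts N-formylkynurenine to fluorescent NFK-PIP (ex 400/em 500 nm); IC50 by nonlinear regression.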

[2] = target: T2, human tryptophan 2,3-dioxygenase (hTDO) (Homo sapiens, UniProt P48775); assay: In-vitro human tryptophan 2,3-dioxygenase (TDO) enzyme assay; format: biochemical; details: for inhibition at 1 µM: hTDO enzyme at 1.0 μM concentration; for inhibition at 10 µM: hTDO enzyme at 10.0 μM concentration
T2 construct: His tag (N); purchased BPS Bioscience, San Diego, Calif., USA; host or cells: E. coli
T2 sequence (P48775 whole entry): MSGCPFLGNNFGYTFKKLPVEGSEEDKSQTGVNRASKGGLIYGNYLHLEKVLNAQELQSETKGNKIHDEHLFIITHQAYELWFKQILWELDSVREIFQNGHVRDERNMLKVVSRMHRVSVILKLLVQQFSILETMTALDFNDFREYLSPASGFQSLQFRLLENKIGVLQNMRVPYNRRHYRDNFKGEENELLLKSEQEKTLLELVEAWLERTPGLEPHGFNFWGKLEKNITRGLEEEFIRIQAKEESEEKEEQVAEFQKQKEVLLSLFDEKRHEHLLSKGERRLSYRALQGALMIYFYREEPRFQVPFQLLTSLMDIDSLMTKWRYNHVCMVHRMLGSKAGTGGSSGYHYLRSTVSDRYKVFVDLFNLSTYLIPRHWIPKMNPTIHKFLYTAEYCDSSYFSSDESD
Method in brief: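 N-His-tagged hTDO expressed in E. coli (125 ng) incubated with 200 μM L-tryptophan, 100 mM sodium phosphate pH 7.0, 0.01% Tween-20, 100 μM ascorbate, 60 min at 37 °C. Product converted with 200 mM piperidine (65 °C, 20 min) to NFK-PIP, fluorescence 400/500 nm; IC50 by nonlinear regression.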

T1 sequence (P14902 whole entry): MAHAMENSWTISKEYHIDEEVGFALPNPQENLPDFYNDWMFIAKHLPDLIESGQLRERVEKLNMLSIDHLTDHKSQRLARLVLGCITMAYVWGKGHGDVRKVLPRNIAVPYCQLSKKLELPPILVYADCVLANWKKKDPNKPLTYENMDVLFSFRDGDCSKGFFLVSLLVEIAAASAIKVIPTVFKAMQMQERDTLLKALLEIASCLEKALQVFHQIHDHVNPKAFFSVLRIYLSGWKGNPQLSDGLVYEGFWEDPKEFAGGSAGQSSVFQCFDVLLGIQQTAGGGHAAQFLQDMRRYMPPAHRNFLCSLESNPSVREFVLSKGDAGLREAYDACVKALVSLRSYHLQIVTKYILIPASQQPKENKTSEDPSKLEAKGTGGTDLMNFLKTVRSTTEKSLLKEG

Compound | IC50 [1] [nM] | inhibition at 1 µM [1] [%] | inhibition at 10 µM [1] [%] | inhibition at 1 µM [2] [%] | inhibition at 10 µM [2] [%]
CC1=C(c2ccccc2)C(CC(=O)c2ccc3c(c2)OCO3)n2cncc21 (centres unmarked) [Example 28, 1-Benzo[1,3]dioxol-5-yl-2-(7-methyl-6-phenyl-5H-pyrrolo[1,2-c]imidazol-5-yl)-ethanone] | < 500 | ≥ 50 | ≥ 50 | ≥ 50 | ≥ 50
CC1=C(c2ccccc2)C(CC(=O)C2CCC(C(=O)N3CCC(=O)CC3)CC2)n2cncc21 (centres unmarked) [Example 124] | – | ≤ 50 | ≥ 50 | ≤ 50 | –
O=C(CC1C(c2ccccc2)=Cc2cncn21)c1ccccc1 (centres unmarked) [Example 169, 1-Phenyl-2-(6-phenyl-5H-pyrrolo[1,2-c]imidazol-5-yl)-ethanone] | – | ≤ 50 | ≥ 50 | – | ≥ 50
CC1=C(c2ccccc2)C(CC(O)C2CCN(c3ccccn3)CC2)n2cncc21 (centres unmarked) [Example 188, 2-(7-methyl-6-phenyl-5H-pyrrolo[1,2-c]imidazol-5-yl)-1-(1-(pyridin-2-yl)piperidin-4-yl)ethan-1-ol] | – | ≤ 50 | ≥ 50 | ≤ 50 | –
CC1=C(c2ccccc2)C(CC(O)C2CCN(S(=O)(=O)c3ccccc3)CC2)n2cncc21 (centres unmarked) [Example 145] | < 500 | ≥ 50 | ≥ 50 | ≥ 50 | –
CC1=C(c2ccccc2)C(CC(O)C2CCN(C(=O)c3cccnc3)CC2)n2cncc21 (centres unmarked) [Example 157] | > 500 | ≥ 50 | ≥ 50 | ≤ 50 | –
CC1=C(c2ccccc2)C(CC(O)C2CCC(O)CC2)n2cncc21 (single isomer, unassigned) [Example 121] | – | ≤ 50 | ≥ 50 | ≤ 50 | –
CC1=C(c2cccc(Cl)c2)C(CC(O)C2CCCCC2)n2cncc21 (centres unmarked) [Example 96] | – | ≤ 50 | ≥ 50 | ≤ 50 | –
CC1=C(c2ccccc2)C(C[C@H](O)C2CCC(C(=O)Nc3cccnc3)CC2)n2cncc21 (some centres unmarked) [Example 128] | < 500 | ≥ 50 | ≥ 50 | ≥ 50 | –
CC1=C(c2ccccc2)C(CC(=O)C2CCC(C(=O)Nc3ccccc3)CC2)n2cncc21 (centres unmarked) [Example 109, 4-(2-(7-methyl-6-phenyl-5H-pyrrolo[1,2-c]imidazol-5-yl)acetyl)-N-phenylcyclohexane-1-carboxamide] | – | ≤ 50 | ≥ 50 | ≥ 50 | –
CCOC(=O)CC1C(c2ccccc2)=C(C)c2cncn21 (centres unmarked) [Example 22] | – | ≤ 50 | ≥ 50 | – | ≥ 50
CC1=C(c2ccccc2)C(C[C@@H](O)C2CCCN2C(=O)c2ccccc2)n2cncc21 (some centres unmarked) [Example 116] | – | ≤ 50 | ≤ 50 | ≤ 50 | –
CC1=C(c2ccccc2)C(CC(=O)c2ccc(C(=O)O)cc2)n2cncc21 (centres unmarked) [Example 24, 4-[2-(7-Methyl-6-phenyl-5H-pyrrolo[1,2-c]imidazol-5-yl)-acetyl]-benzoic acid] | – | ≤ 50 | ≥ 50 | ≥ 50 | ≥ 50
CC(C)C1=C(c2ccccc2)C(CC(=O)C2CCCCC2)n2cncc21 (centres unmarked) [Example 106] | – | ≤ 50 | ≤ 50 | ≤ 50 | –
OC(CC1C2=C(CCCC2)c2cncn21)c1ccccc1 (centres unmarked) [Example 2, 1-Phenyl-2-(6,7,8,9-tetrahydro-5H-imidazo[5,1-a]isoindol-5-yl)-ethanol] | – | – | ≤ 50 | – | ≥ 50
CC1=C(c2ccccc2)C(C[C@H](O)C2CCC(C(=O)O)CC2)n2cncc21 (some centres unmarked) [Example 133] | – | ≤ 50 | ≥ 50 | ≥ 50 | –
CCOC(=O)CCC(=O)CC1C(c2ccccc2)=C(C)c2cncn21 (centres unmarked) [Example 173, Ethyl 5-(7-methyl-6-phenyl-5H-pyrrolo[1,2-c]imidazol-5-yl)-4-oxopentanoate] | – | ≤ 50 | ≥ 50 | ≤ 50 | –
CC1=C(c2ccccc2)C(CC(=O)c2ccc(Br)cc2)n2cncc21 (centres unmarked) [Example 51, 1-(4-bromophenyl)-2-(7-methyl-6-phenyl-5H-pyrrolo[1,2-c]imidazol-5-yl)ethan-1-one] | > 500 | ≥ 50 | ≥ 50 | ≥ 50 | –
CC1=C(c2ccccc2)C(CC(=O)C2CCN(Cc3ccccc3)CC2)n2cncc21 (centres unmarked) [Example 140] | – | ≤ 50 | ≤ 50 | ≤ 50 | –
CC1=C(c2ccccc2)C(CC(O)c2ccccc2)n2cncc21 (centres unmarked) [Example 12, 2-(7-Methyl-6-phenyl-5H-pyrrolo[1,2-c]imidazol-5-yl)-1-phenyl-ethanol] | > 500 | – | ≥ 50 | – | ≥ 50
CC1=C(c2ccccc2)C(CC(=O)c2cccc(F)c2)n2cncc21 (centres unmarked) [Example 20, 1-(3-Fluoro-phenyl)-2-(7-methyl-6-phenyl-5H-pyrrolo[1,2-c]imidazol-5-yl)-ethanone] | > 500 | ≥ 50 | ≥ 50 | ≥ 50 | ≥ 50
CC1=C(c2ccccc2)C(CC(=O)c2ccc(-c3ccc(C)s3)cc2)n2cncc21 (centres unmarked) [Example 64] | < 500 | ≥ 50 | ≥ 50 | ≤ 50 | –
COC(=O)c1cccc(C(=O)CC2C(c3ccccc3)=C(C)c3cncn32)c1 (centres unmarked) [Example 23, 3-[2-(7-Methyl-6-phenyl-5H-pyrrolo[1,2-c]imidazol-5-yl)-acetyl]-benzoic acid methyl ester] | – | ≤ 50 | ≥ 50 | ≥ 50 | ≥ 50
CC1=C(c2ccccc2)C(CC(=O)c2cccc(Br)c2)n2cncc21 (centres unmarked) [Example 68, 1-(3-Bromo-phenyl)-2-(7-methyl-6-phenyl-5H-pyrrolo[1,2-c]imidazol-5-yl)-ethanone] | – | ≥ 50 | ≥ 50 | ≥ 50 | –
CC1=C(c2ccccc2)C(CC(=O)c2ccc(C(=O)Nc3ccc(C)cc3C)cc2)n2cncc21 (centres unmarked) [Example 84] | – | ≥ 50 | ≥ 50 | ≥ 50 | –
CC1=C(c2ccc(C)cc2)C(CC(=O)C2CCCCC2)n2cncc21 (centres unmarked) [Example 86, 1-Cyclohexyl-2-(7-methyl-6-(p-tolyl)-5H-pyrrolo[1,2-c]imidazol-5-yl)ethan-1-one] | – | ≤ 50 | ≤ 50 | ≥ 50 | –
CC1=C(c2ccccc2)C(CC(=O)c2ccc(-c3ccc(-c4ccccc4)cc3)cc2)n2cncc21 (centres unmarked) [Example 65] | – | ≤ 50 | ≤ 50 | ≤ 50 | –
CC1=C(c2ccccc2)C(CC(=O)C2CCN(C(=O)c3ccccc3)CC2)n2cncc21 (centres unmarked) [Example 142] | – | ≤ 50 | ≥ 50 | ≥ 50 | –
CC1=C(c2ccccc2)C(CC(=O)c2ccc(C(=O)Nc3cccnc3)cc2)n2cncc21 (centres unmarked) [Example 79] | > 500 | ≥ 50 | ≥ 50 | ≥ 50 | –
